Source: US11446260B2, “Pharmaceutical composition of S-ketamine hydrochloride” (Janssen Pharmaceutica NV, priority 2013, dated 2022)

Columns and labels:
Assay type in all cases: cell-based
E. coli = assay: Full AET Challenge Test; conditions: Escherichia coli; summary of Examples 1 and 2
S. haemolyticus = assay: Challenge test (Example 1); conditions: Staphylococcus haemolyticus; summary of Examples 1 and 2
P. aeruginosa = assay: Full AET Challenge Test; conditions: Pseudomonas aeruginosa; summary of Examples 1 and 2
M. luteus = assay: Full AET Challenge Test; conditions: Micrococcus Luteus; summary of Examples 1 and 2
C. albicans = assay: Full AET Challenge Test; conditions: Candida albicans; summary of Examples 1 and 2
S. aureus = assay: Full AET Challenge Test; conditions: Staphylococcus aureus; summary of Examples 1 and 2
A. brasiliensis = assay: Full AET Challenge Test; conditions: Aspergillus brasiliensis; summary of Examples 1 and 2

CN[C@]1(c2ccccc2Cl)CCCCC1=O.Cl [S-ketamine hydrochloride, (S)-2-(2-chlorophenyl)-2-(methylamino)cyclohexanone hydrochloride] was tested, and the “antimicrobial properties (summary in words)” value (from here on “antimicrobial properties”) (E. coli) was “strong antimicrobial properties”, the “antimicrobial properties” value (S. haemolyticus) was “strong antimicrobial properties” and the “antimicrobial properties” value (P. aeruginosa) was “strong antimicrobial properties”. The “antimicrobial properties” value (M. luteus) was “strong antimicrobial properties”, the “antimicrobial properties” value (C. albicans) was “strong antimicrobial properties” and the “antimicrobial properties” value (S. aureus) was “strong antimicrobial properties”. The “antimicrobial properties” value (A. brasiliensis) was “some inhibitory activity”.
